The subject of one data set is 44 targets. Kind of data set: SafetyScreen44 panel (Eurofins), whole panel. In kind it is binding, mostly human. Particulars: 10 μM, out of 44 targets. The method, then:
(§1) Compound enzyme inhibition effect was calculated as a % inhibition of control enzyme activity. […] Measurements were performed in duplicate.

In data set [1] the target is T1, norepinephrine transporter (NET) (Homo sapiens, UniProt P23975).
T1 construct: Eurofins SafetyScreen44
Briefly: SafetyScreen44 binding. Particulars: substantial = higher than 50%.

Data set [2] has as its system chloroquine-induced scratching behavior of mice. Kind of data set: Chloroquine-induced acute itch (scratching) model, systemic treatment. In kind it is in vivo. Particulars: for chloroquine-induced scratching behavior: WT mice, 3, 10 or 30 mg/kg i.p. 15 min prior to s.c. chloroquine. The method, then:
(§2) Further studies were conducted to assess the in vivo efficacy of Compound 6 and Compound 10 in mice. In detail, experiments were performed in 8 to 16 weeks old C57BL/6N mice (Charles River, Sulzfeld, Germany) and animals with a genetic deletion of Slack (Slack^−/− mice^27) of either sex. Animals were housed on a 12 h light/dark cycle with access to food and water ad libitum. All experiments adhered to the guidelines of the International Association for the Study of Pain and to the ARRIVE (Animal Research: Reporting on In Vivo Experiments) guidelines, and were approved by and conducted in accordance with the regulations of the local Animal Welfare authorities (Regierungspräsidium Darmstadt, Germany). All behavioral studies were conducted during the light cycle of the day at room temperature (20-24° C.) by an observer blinded for the treatment of the animals and/or their genotype.
Acute itch behavior of the mice was monitored using a histamine-based, chloroquine-based and SLIGRL-based acute itch behavior model. In these models, three to four days before the experiment day, the fur on the dorsolateral aspect of the neck was shaved under brief isoflurane anesthesia. On the testing day, mice were habituated for 30 min in separate plexiglass cylinders (30 cm diameter). Compounds were dissolved in 0.9% saline containing 10% 2-hydroxypropyl-β-cyclodextrine and i.p. administered in a volume of maximal 200 μL. 15 min thereafter, the pruritogens chloroquine (200 μg), SLIGRL (100 μg) or histamine (800 μg), all dissolved in 0.9% saline (20 μL), were injected subcutaneously into the nape of the neck. Numbers of scratching bouts directed to the nape of the neck were assessed over 30 min by videotaping.

A further data set relates to motor function of mice. Kind of data set: Accelerating rotarod test (motor function). To be noted: for motor function in the accelerating rotarod test: 15 min after administration. In kind it is in vivo. Further details: motor function in the accelerating rotarod test: dose or concentration left out as unconfirmed. The method, then: as §2
Accelerating rotarod and vertical pole test were performed as follows: Mice were placed on a rotarod treadmill (Ugo Basile, Italy) with increasing speed (4-40 rpm over 300 s), and were trained for 4-5 consecutive days. Only mice reaching the 300 seconds without falling off were included in the experiment. On the testing day, compounds were i.p. administered in a vehicle composed of 0.9% saline (Sigma-Aldrich) containing 10% 2-hydroxypropyl-β-cyclodextrine (ITW Reagents) and after 15 min the latency to fall off the accelerating rotarod was measured. Immediately thereafter, mice were placed head-upward on the top of a vertical pole with a rough surface (diameter 1 cm, height 40 cm) and the time until animals reached the ground was recorded (cut-off time 20 s). Means out of three trials for each time point were calculated for further analysis.
On the technique in general: Falling from the rotarod earlier than controls is read as motor impairment.

Data set [3] relates to voltage-gated (KV) potassium channel. Briefly: SafetyScreen44 binding. Particulars: 10 μM. Further details: species or system rat. The method, then:
as §1

Data set [4] addresses T2, serotonin transporter (SET) (Homo sapiens, UniProt P31645).
T2 construct: Eurofins SafetyScreen44
Briefly: SafetyScreen44 binding. Particulars: substantial = higher than 50%.

Data set [5] concerns the target T3, dopamine receptor D1 (D1) (Homo sapiens, UniProt P21728).
T3 construct: Eurofins SafetyScreen44
Briefly: SafetyScreen44 binding. Particulars: 10 μM; substantial = higher than 50%. The method, then:
as §1

The target of data set [6] is T4, histamine H1 receptor (H1) (Homo sapiens, UniProt P35367).
T4 construct: Eurofins SafetyScreen44
Briefly: SafetyScreen44 binding. Particulars: 10 μM; substantial = higher than 50%. The method, then: as §1

Data set [7] deals with T5, alpha-1A adrenergic receptor (α1A) (Homo sapiens, UniProt P35348).
T5 construct: Eurofins SafetyScreen44
Kind of data set: SafetyScreen44 binding. To be noted: substantial = higher than 50%. The method, then: as §1

[8] abbreviates: systemic administration of a low dose, preliminary experiments, data not shown.

Bounds are passed on as bounds.

Here are results for 3 compounds from patent US20260258003A1, “SLACK-ACTIVATING COMPOUNDS AND THEIR MEDICAL USE” (Johann Wolfgang Goethe-Universität Frankfurt am Main, priority 2023, published 2026).

T4 sequence (P35367 whole entry): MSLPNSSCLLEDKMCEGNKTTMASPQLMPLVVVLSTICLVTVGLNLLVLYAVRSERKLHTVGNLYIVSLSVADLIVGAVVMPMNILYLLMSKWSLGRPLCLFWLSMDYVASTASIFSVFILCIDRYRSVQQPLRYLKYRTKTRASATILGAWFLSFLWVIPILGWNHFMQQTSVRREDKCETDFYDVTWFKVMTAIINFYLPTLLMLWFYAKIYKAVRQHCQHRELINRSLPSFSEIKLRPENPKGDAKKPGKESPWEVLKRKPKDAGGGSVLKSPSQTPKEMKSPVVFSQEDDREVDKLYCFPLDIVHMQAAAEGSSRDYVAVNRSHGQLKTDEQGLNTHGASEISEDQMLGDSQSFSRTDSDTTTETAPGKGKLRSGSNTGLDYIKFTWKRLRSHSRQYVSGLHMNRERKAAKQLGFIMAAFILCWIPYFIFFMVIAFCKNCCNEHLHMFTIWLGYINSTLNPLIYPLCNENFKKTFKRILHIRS
T2 sequence (P31645 whole entry): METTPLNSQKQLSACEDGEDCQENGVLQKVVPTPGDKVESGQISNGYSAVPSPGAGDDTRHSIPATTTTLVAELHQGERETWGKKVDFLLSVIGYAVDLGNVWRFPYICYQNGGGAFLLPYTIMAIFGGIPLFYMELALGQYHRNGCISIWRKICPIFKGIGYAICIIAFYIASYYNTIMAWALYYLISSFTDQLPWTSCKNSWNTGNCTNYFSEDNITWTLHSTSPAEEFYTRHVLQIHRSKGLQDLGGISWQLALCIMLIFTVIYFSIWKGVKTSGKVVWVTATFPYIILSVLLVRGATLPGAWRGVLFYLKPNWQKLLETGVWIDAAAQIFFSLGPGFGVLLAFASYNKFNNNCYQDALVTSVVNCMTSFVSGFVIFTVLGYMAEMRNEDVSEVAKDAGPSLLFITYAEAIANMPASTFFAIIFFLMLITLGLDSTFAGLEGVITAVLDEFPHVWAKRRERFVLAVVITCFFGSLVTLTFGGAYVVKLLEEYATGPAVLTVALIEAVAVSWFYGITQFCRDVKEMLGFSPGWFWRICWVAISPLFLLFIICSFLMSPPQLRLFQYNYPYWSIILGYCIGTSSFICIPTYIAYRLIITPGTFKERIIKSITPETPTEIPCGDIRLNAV
T3 sequence (P21728 whole entry): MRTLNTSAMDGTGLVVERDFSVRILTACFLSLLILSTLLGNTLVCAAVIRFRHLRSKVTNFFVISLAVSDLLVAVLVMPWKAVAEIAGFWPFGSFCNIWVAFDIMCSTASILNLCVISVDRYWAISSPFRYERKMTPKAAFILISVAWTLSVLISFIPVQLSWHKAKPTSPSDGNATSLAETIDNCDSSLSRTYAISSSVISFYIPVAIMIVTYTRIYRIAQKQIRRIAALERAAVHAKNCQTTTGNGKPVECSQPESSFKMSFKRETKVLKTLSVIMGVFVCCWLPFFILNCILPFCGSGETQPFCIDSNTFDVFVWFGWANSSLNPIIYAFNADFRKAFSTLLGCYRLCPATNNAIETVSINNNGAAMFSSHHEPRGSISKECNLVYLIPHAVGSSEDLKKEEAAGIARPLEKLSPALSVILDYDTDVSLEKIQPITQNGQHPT
T1 sequence (P23975 whole entry): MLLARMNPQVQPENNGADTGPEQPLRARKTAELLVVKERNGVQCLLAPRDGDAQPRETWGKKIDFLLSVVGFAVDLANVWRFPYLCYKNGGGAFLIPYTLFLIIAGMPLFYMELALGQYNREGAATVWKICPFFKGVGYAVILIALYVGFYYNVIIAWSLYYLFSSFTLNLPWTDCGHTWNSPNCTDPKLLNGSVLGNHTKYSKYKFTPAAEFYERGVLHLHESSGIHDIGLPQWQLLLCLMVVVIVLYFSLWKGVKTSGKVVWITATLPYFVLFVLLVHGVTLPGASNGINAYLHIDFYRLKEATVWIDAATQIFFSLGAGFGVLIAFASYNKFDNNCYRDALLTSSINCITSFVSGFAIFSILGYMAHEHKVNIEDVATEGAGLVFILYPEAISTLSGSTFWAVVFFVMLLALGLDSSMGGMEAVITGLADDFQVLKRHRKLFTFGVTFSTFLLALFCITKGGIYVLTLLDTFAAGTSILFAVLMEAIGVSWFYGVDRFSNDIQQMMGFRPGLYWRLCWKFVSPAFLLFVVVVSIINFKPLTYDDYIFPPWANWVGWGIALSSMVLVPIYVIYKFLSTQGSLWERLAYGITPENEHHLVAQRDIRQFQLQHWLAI
T5 sequence (P35348 whole entry): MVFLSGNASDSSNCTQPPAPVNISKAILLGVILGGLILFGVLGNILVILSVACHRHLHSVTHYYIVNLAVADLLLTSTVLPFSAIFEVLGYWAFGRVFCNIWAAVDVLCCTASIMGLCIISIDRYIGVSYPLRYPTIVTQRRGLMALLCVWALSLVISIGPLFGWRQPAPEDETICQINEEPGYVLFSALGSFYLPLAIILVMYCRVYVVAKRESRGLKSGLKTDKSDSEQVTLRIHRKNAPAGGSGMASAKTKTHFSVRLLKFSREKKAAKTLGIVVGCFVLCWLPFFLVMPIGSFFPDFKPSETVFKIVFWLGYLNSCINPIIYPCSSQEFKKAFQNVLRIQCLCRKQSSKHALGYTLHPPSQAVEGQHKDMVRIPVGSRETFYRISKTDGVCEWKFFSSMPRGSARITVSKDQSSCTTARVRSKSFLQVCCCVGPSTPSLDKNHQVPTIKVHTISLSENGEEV

`O=C(O)COCCN1CCN(C2=Nc3ccccc3Oc3ccc(Cl)cc32)CC1` [Compound 6, 2-(2-(4-(2-Chlorodibenzo[b,f][1,4]oxazepin-11-yl)piperazin-1-yl)ethoxy) acetic acid]: in the data set with 44 targets, the “number of targets with substantial binding inhibition (higher than 50%)” value turned out to be 8. For the same compound, in data set [1] (10 μM), the “binding inhibition, NET” value is “substantial binding”. Also, in data set [2] (Slack−/− mice, 10 mg/kg), the “chloroquine-induced scratching in Slack−/− mice” value is reported as “did not significantly alter”. The chloroquine-induced scratching behavior entry in [2] is recorded as “ameliorate the scratching behavior in a dose-dependent manner”. In addition, the “antipruritic effect after pretreatment with Slack inhibitor Compound 31” value in data set [2] (WT mice, Compound 31 30 mg/kg i.p. 5 min prior to Compound 6 30 mg/kg i.p.) is reported as “partly antagonized”. In addition, the “motor function in the accelerating rotarod test” value in the data set with motor function of mice was “did neither impair the motor function”. The “binding to voltage-gated (KV) potassium channel in the off-target screen” value (shortened to “binding to voltage-gated”) in data set [3] is “did not measurably bind”. Moreover, the “binding inhibition, SET” value in [4] (10 μM) is given as “substantial binding”. Also, the “binding inhibition, D1” value in data set [5] is “substantial binding”. For the same compound, the “binding inhibition, H1” value in [6] was “substantial binding”. Besides, the “binding inhibition, α1A” value in data set [7] (10 μM) is given as “substantial binding”.
As usually defined, the inhibition is the drop in the measured response relative to a control, in per cent. As to `CN1CCN(C2=Nc3ccccc3Oc3ccc(Cl)cc32)CC1` [Loxapine, 2-chloro-11-(4-methylpiperazin-1-yl)dibenzo[b,f][1,4]oxazepine, reference compound], the “number of targets with substantial binding inhibition (higher than 50%)” value in the data set on 44 targets amounted to 17. The inhibition at 10 µM in data set [1], in data set [4] and in [7] was > 50% throughout. Also, the “chloroquine-induced scratching behavior of wildtype mice” value in [2] (setting [8]) is “significantly alleviated”. In data set [2] (setting [8]), the “scratching behavior in Slack knockout mice” value is recorded as “did not affect”. Further, the “ability to perform in the accelerating rotarod test” value in the data set on motor function of mice (dose ≥0.39 mg/kg i.p.) is on record as “significantly reduced the ability of the mice to perform”. Also, the “binding to voltage-gated” value in [3] is “did not measurably bind”.
As for `O=c1nc(CN2CCN(C3=Nc4ccccc4Oc4ccc(Cl)cc43)CC2)[nH][nH]1` [Compound 10, 5-((4-(2-Chlorodibenzo[b,f][1,4]oxazepin-11-yl)piperazin-1-yl)methyl)-1,2-dihydro-3H-1,2,4-triazol-3-one], the “number of targets with substantial binding inhibition (higher than 50%)” value in the data set on 44 targets was found to be 5. The chloroquine-induced scratching behavior entry in data set [2] is given as “ameliorate the scratching behavior in a dose-dependent manner”. In the data set on motor function of mice, the “motor function in the accelerating rotarod test” value is listed as “did neither impair the motor function”. The “binding to voltage-gated” value in [3] is on record as “did not measurably bind”. The “binding inhibition, D1” value in data set [5] is “substantial binding inhibition”. For the same compound, the “binding inhibition, H1” value in data set [6] was “substantial binding inhibition”.
